Data taken from US20230183193A1, “4-DIFLUOROMETHYL BENZOYL AMIDES WITH HERBICIDAL ACTION” (BAYER CROPSCIENCE AKTIENGESELLSCHAFT, priority 2017, published 2023).

How the values were obtained:
Abutilon theophrasti [1] = assay: Post-emergence herbicidal action, ABUTH; format: in vivo; settings: 80 g/ha, Table D
Method in brief: (§1)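 Herbicidal effect is rated visually as percent versus untreated plants (100% = dead, 0% = like control) about 3 weeks after spraying. Plants were sown in sandy loam in the greenhouse and sprayed on green parts at the one-leaf stage, 2 to 3 weeks post-sowing.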

ECHCG [2] = assay: Post-emergence herbicidal action, ECHCG; format: in vivo; settings: 80 g/ha, Table C
Method in brief: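 Weed and crop plants grown in sandy loam in the greenhouse, treated at the one-leaf stage 2–3 weeks after sowing. Damage scored visually after about 3 weeks vs untreated controls (0% = control, 100% = dead).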

Viola tricolor [3] = assay: Pre-emergence herbicidal action, VIOTR; format: in vivo; settings: for Herbicidal efficacy against VIOTR: Table K; for herbicidal activity VIOTR: scored visually after 3 weeks vs untreated controls
Method in brief: (§2)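 Weed seeds were laid out in sandy loam and covered with soil, then the soil surface was treated with an aqueous suspension or emulsion of the formulated compound containing 0.2% wetting agent. Pots stayed in the greenhouse for 3 weeks before damage was rated visually against untreated plants.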

Setaria viridis [4] = assay: Post-emergence herbicidal action, SETVI; format: in vivo; settings: for herbicidal activity SETVI: Table C
Method in brief: as §1

Cyperus serotinus = assay: Pre-emergence herbicidal action, CYPES; format: in vivo; settings: for herbicidal activity CYPES: dosage 320 g/ha, scored visually after 3 weeks vs untreated controls
Method in brief: as §2

Stellaria media [5] = assay: Pre-emergence herbicidal action, STEME; format: in vivo; settings: dosage 320 g/ha, scored visually after 3 weeks vs untreated controls
Method in brief: as §2

Avena fatua [6] = assay: Pre-emergence herbicidal action, AVEFA; format: in vivo; settings: for herbicidal activity AVEFA: dosage 320 g/ha, scored visually after 3 weeks vs untreated controls
Method in brief: as §2

Polygonum convolvulus = assay: Pre-emergence herbicidal action, POLCO; format: in vivo; settings: Table K
Source text: 1. Pre-Emergence Herbicidal Action Against Harmful Plants Seeds of monocotyledonous and dicotyledonous weed plants and crop plants are laid out in sandy loam soil in wood-fiber pots and covered with soil. The compounds of the invention, formulated in the form of wettable powders (WP) or as emulsion concentrates (EC), are then applied to the surface of the covering soil in the form of an aqueous suspension or emulsion at a water application rate equating to […], with addition of 0.2% wetting agent. After the treatment, the pots are placed in a greenhouse and kept under good growth conditions for the trial plants. The damage to the test plants is scored visually after a test period of 3 weeks by comparison with untreated controls (herbicidal activity in percent (%): 100% activity=the plants have died, 0% activity=like control plants).
For comparison, the herbicidal activity of numerous compounds according to the invention was tested with the structurally closest compounds known from the documents WO 2011/035874, WO 2012/028579 and WO 2012/126932, by the pre- and post-emergence method.

Abutilon theophrasti [7] = assay: Pre-emergence herbicidal action, ABUTH; format: in vivo; settings: for Herbicidal efficacy against ABUTH: Table K; for herbicidal activity ABUTH: scored visually after 3 weeks vs untreated controls
Method in brief: as §2

Pharbitis purpureum = assay: Post-emergence herbicidal action, PHBPU; format: in vivo; settings: 80 g/ha, Table D
Method in brief: as §1

ECHCG [8] = assay: Pre-emergence herbicidal action, ECHCG; format: in vivo, Echinochloa crus-galli
Setaria viridis [9] = assay: Pre-emergence herbicidal action, SETVI; format: in vivo; settings: for herbicidal activity SETVI: dosage 320 g/ha, scored visually after 3 weeks vs untreated controls
Method in brief: as §2

Alopecurus myosuroides [10] = assay: Post-emergence herbicidal action, ALOMY; format: in vivo; settings: for herbicidal activity ALOMY: Table C
Method in brief: as §1

Avena fatua [11] = assay: Post-emergence herbicidal action, AVEFA; format: in vivo; settings: for herbicidal activity AVEFA: Table C
Method in brief: as §1

Matricaria inodora = assay: Pre-emergence herbicidal action, MATIN; format: in vivo; settings: for Herbicidal efficacy against MATIN: Table K; for herbicidal activity MATIN: scored visually after 3 weeks vs untreated controls
Method in brief: as §2

Stellaria media [12] = assay: Post-emergence herbicidal action, STEME; format: in vivo; settings: for Herbicidal activity STEME: Table D
Method in brief: as §1

Alopecurus myosuroides [13] = assay: Pre-emergence herbicidal action, ALOMY; format: in vivo; settings: for herbicidal activity ALOMY: dosage 320 g/ha, scored visually after 3 weeks vs untreated controls
Method in brief: as §2

Amaranthus retroflexus [14] = assay: Post-emergence herbicidal action, AMARE; format: in vivo; settings: 80 g/ha, Table D
Method in brief: as §1

Amaranthus retroflexus [15] = assay: Pre-emergence herbicidal action, AMARE; format: in vivo; settings: dosage 320 g/ha, scored visually after 3 weeks vs untreated controls
Method in brief: as §2

Viola tricolor [16] = assay: Post-emergence herbicidal action, VIOTR; format: in vivo; settings: for herbicidal activity VIOTR: Table D
Method in brief: as §1

In the case of `CSc1c(C(F)F)ccc(C(=O)Nc2nnnn2C)c1C` [Example 1-1], the “herbicidal activity ABUTH” value (Abutilon theophrasti [1]) is reported as 100%, the “Herbicidal activity ECHCG” value (ECHCG [2]) is reported as 100% and the “Herbicidal efficacy against VIOTR” value (Viola tricolor [3]; dosage 20 g/ha) is reported as 100. The “Herbicidal efficacy against VIOTR” value (Viola tricolor [3]; dosage 80 g/ha) was 100, the “herbicidal activity VIOTR” value (Viola tricolor [3]; dosage 320 g/ha) was 100% and the “Herbicidal efficacy against SETVI” value (Setaria viridis [4]; 5 g/ha) was 100. The “Herbicidal efficacy against SETVI” value (Setaria viridis [4]; 20 g/ha) was 100, the “Herbicidal efficacy against SETVI” value (Setaria viridis [4]; 80 g/ha) was 100 and the “herbicidal activity SETVI” value (Setaria viridis [4]; 80 g/ha) was 100%. The “Herbicidal efficacy against CYPES” value (Cyperus serotinus; 20 g/ha) was 30, the “Herbicidal efficacy against CYPES” value (Cyperus serotinus; 80 g/ha) was 70 and the “herbicidal activity CYPES” value (Cyperus serotinus) was 80%. For the same compound, the “Herbicidal activity STEME” value (Stellaria media [5]) was 100%, the “Herbicidal efficacy against AVEFA” value (Avena fatua [6]; 80 g/ha) was 90 and the “herbicidal activity AVEFA” value (Avena fatua [6]) was 100%. For the same compound, the “Herbicidal efficacy against POLCO” value (Polygonum convolvulus; dosage 20 g/ha) was 60, the “Herbicidal efficacy against POLCO” value (Polygonum convolvulus; dosage 80 g/ha) was 70 and the “Herbicidal efficacy against ABUTH” value (Abutilon theophrasti [7]; dosage 20 g/ha) was 90. For the same compound, the “Herbicidal efficacy against ABUTH” value (Abutilon theophrasti [7]; dosage 80 g/ha) was 100, the “herbicidal activity ABUTH” value (Abutilon theophrasti [7]; dosage 320 g/ha) was 100% and the “Herbicidal activity PHBPU” value (Pharbitis purpureum) was 90%. For the same compound, the “Herbicidal efficacy against ECHCG” value (ECHCG [8]; 20 g/ha) was 80, the “Herbicidal efficacy against ECHCG” value (ECHCG [8]; 80 g/ha) was 100 and the “Herbicidal efficacy against SETVI” value (Setaria viridis [9]; 20 g/ha) was 70. For the same compound, the “Herbicidal efficacy against SETVI” value (Setaria viridis [9]; 80 g/ha) was 100, the “herbicidal activity SETVI” value (Setaria viridis [9]) was 100% and the “Herbicidal efficacy against ALOMY” value (Alopecurus myosuroides [10]; 5 g/ha) was 60. For the same compound, the “Herbicidal efficacy against ALOMY” value (Alopecurus myosuroides [10]; 20 g/ha) was 90, the “Herbicidal efficacy against ALOMY” value (Alopecurus myosuroides [10]; 80 g/ha) was 90 and the “herbicidal activity ALOMY” value (Alopecurus myosuroides [10]; 80 g/ha) was 90%. The “Herbicidal efficacy against AVEFA” value (Avena fatua [11]; 5 g/ha) was 40, the “Herbicidal efficacy against AVEFA” value (Avena fatua [11]; 20 g/ha) was 90 and the “Herbicidal efficacy against AVEFA” value (Avena fatua [11]; 80 g/ha) was 100. The “herbicidal activity AVEFA” value (Avena fatua [11]; 80 g/ha) was 100%, the “Herbicidal efficacy against MATIN” value (Matricaria inodora; dosage 20 g/ha) was 70 and the “Herbicidal efficacy against MATIN” value (Matricaria inodora; dosage 80 g/ha) was 90. For the same compound, the “herbicidal activity MATIN” value (Matricaria inodora; dosage 320 g/ha) was 100%, the “Herbicidal efficacy against STEME” value (Stellaria media [12]; 5 g/ha) was 100 and the “Herbicidal efficacy against STEME” value (Stellaria media [12]; 20 g/ha) was 100. The “Herbicidal efficacy against STEME” value (Stellaria media [12]; 80 g/ha) was 100, the “Herbicidal activity STEME” value (Stellaria media [12]; 80 g/ha) was 100% and the “Herbicidal efficacy against ALOMY” value (Alopecurus myosuroides [13]; 20 g/ha) was 90. The “Herbicidal efficacy against ALOMY” value (Alopecurus myosuroides [13]; 80 g/ha) was 90, the “herbicidal activity ALOMY” value (Alopecurus myosuroides [13]) was 100% and the “herbicidal activity AMARE” value (Amaranthus retroflexus [14]) was 100%. The “herbicidal activity AMARE” value (Amaranthus retroflexus [15]) was 100%, the “Herbicidal efficacy against VIOTR” value (Viola tricolor [16]; 5 g/ha) was 100 and the “Herbicidal efficacy against VIOTR” value (Viola tricolor [16]; 20 g/ha) was 100. The “Herbicidal efficacy against VIOTR” value (Viola tricolor [16]; 80 g/ha) was 100 and the “herbicidal activity VIOTR” value (Viola tricolor [16]; 80 g/ha) was 100%.

With `Cc1c(C(=O)Nc2nnnn2C)ccc(C(F)F)c1S(C)(=O)=O` [Example 1-3] the “herbicidal activity ABUTH” value (Abutilon theophrasti [1]) was 80%, the “Herbicidal activity ECHCG” value (ECHCG [2]) was 90% and the “Herbicidal efficacy against VIOTR” value (Viola tricolor [3]; dosage 20 g/ha) was 100. The “Herbicidal efficacy against VIOTR” value (Viola tricolor [3]; dosage 80 g/ha) was 100, the “Herbicidal efficacy against VIOTR” value (Viola tricolor [3]; dosage 320 g/ha) was 100 and the “herbicidal activity VIOTR” value (Viola tricolor [3]; dosage 320 g/ha) was 100%. The “Herbicidal efficacy against SETVI” value (Setaria viridis [4]; 5 g/ha) was 90, the “Herbicidal efficacy against SETVI” value (Setaria viridis [4]; 80 g/ha) was 90 and the “herbicidal activity SETVI” value (Setaria viridis [4]; 80 g/ha) was 90%. For the same compound, the “Herbicidal efficacy against CYPES” value (Cyperus serotinus; 20 g/ha) was 30, the “Herbicidal efficacy against CYPES” value (Cyperus serotinus; 80 g/ha) was 90 and the “Herbicidal efficacy against CYPES” value (Cyperus serotinus; 320 g/ha) was 90. The “herbicidal activity CYPES” value (Cyperus serotinus) was 90%, the “Herbicidal activity STEME” value (Stellaria media [5]) was 100% and the “Herbicidal efficacy against AVEFA” value (Avena fatua [6]; 20 g/ha) was 80. The “Herbicidal efficacy against AVEFA” value (Avena fatua [6]; 80 g/ha) was 100, the “Herbicidal efficacy against AVEFA” value (Avena fatua [6]; 320 g/ha) was 100 and the “herbicidal activity AVEFA” value (Avena fatua [6]) was 100%. For the same compound, the “Herbicidal efficacy against POLCO” value (Polygonum convolvulus; dosage 20 g/ha) was 30, the “Herbicidal efficacy against POLCO” value (Polygonum convolvulus; dosage 80 g/ha) was 90 and the “Herbicidal efficacy against POLCO” value (Polygonum convolvulus; dosage 320 g/ha) was 90. The “Herbicidal efficacy against ABUTH” value (Abutilon theophrasti [7]; dosage 20 g/ha) was 100, the “Herbicidal efficacy against ABUTH” value (Abutilon theophrasti [7]; dosage 80 g/ha) was 100 and the “Herbicidal efficacy against ABUTH” value (Abutilon theophrasti [7]; dosage 320 g/ha) was 100. The “herbicidal activity ABUTH” value (Abutilon theophrasti [7]; dosage 320 g/ha) was 100%, the “Herbicidal activity PHBPU” value (Pharbitis purpureum) was 100% and the “Herbicidal efficacy against ECHCG” value (ECHCG [8]; 20 g/ha) was 90. For the same compound, the “Herbicidal efficacy against ECHCG” value (ECHCG [8]; 80 g/ha) was 100, the “Herbicidal efficacy against ECHCG” value (ECHCG [8]; 320 g/ha) was 100 and the “Herbicidal efficacy against SETVI” value (Setaria viridis [9]; 20 g/ha) was 70. The “Herbicidal efficacy against SETVI” value (Setaria viridis [9]; 80 g/ha) was 100, the “Herbicidal efficacy against SETVI” value (Setaria viridis [9]; 320 g/ha) was 100 and the “herbicidal activity SETVI” value (Setaria viridis [9]) was 100%. For the same compound, the “Herbicidal efficacy against ALOMY” value (Alopecurus myosuroides [10]; 5 g/ha) was 60, the “Herbicidal efficacy against ALOMY” value (Alopecurus myosuroides [10]; 80 g/ha) was 90 and the “herbicidal activity ALOMY” value (Alopecurus myosuroides [10]; 80 g/ha) was 90%. For the same compound, the “Herbicidal efficacy against AVEFA” value (Avena fatua [11]; 5 g/ha) was 70, the “Herbicidal efficacy against AVEFA” value (Avena fatua [11]; 80 g/ha) was 100 and the “herbicidal activity AVEFA” value (Avena fatua [11]; 80 g/ha) was 100%. For the same compound, the “Herbicidal efficacy against MATIN” value (Matricaria inodora; dosage 20 g/ha) was 80, the “Herbicidal efficacy against MATIN” value (Matricaria inodora; dosage 80 g/ha) was 100 and the “Herbicidal efficacy against MATIN” value (Matricaria inodora; dosage 320 g/ha) was 100. For the same compound, the “herbicidal activity MATIN” value (Matricaria inodora; dosage 320 g/ha) was 100%, the “Herbicidal efficacy against STEME” value (Stellaria media [12]; 5 g/ha) was 90 and the “Herbicidal efficacy against STEME” value (Stellaria media [12]; 80 g/ha) was 100. The “Herbicidal activity STEME” value (Stellaria media [12]; 80 g/ha) was 100%, the “Herbicidal efficacy against ALOMY” value (Alopecurus myosuroides [13]; 20 g/ha) was 50 and the “Herbicidal efficacy against ALOMY” value (Alopecurus myosuroides [13]; 80 g/ha) was 90. The “Herbicidal efficacy against ALOMY” value (Alopecurus myosuroides [13]; 320 g/ha) was 100, the “herbicidal activity ALOMY” value (Alopecurus myosuroides [13]) was 100% and the “herbicidal activity AMARE” value (Amaranthus retroflexus [15]) was 100%. For the same compound, the “Herbicidal efficacy against VIOTR” value (Viola tricolor [16]; 5 g/ha) was 100, the “Herbicidal efficacy against VIOTR” value (Viola tricolor [16]; 80 g/ha) was 100 and the “herbicidal activity VIOTR” value (Viola tricolor [16]; 80 g/ha) was 100%.
